Source: patent US6204295A, “Antioxidant compounds” (Orion Corporation, priority 1996, dated 2001)
pIC50: −log10 of the molar value. Like-named read-outs stand apart in the source and are kept apart here.

Assays:
[1] = molecular target: T1, NADPH oxidase of the neutrophils (Homo sapiens, UniProt P04839); assay: Inhibition of reactive oxygen production (oxidative burst) by PMA-activated neutrophils, luminol enhanced chemiluminescence; format: cell-based; details: for inhibition at 1000 µM: read-out: Inhibition of NADPH oxidase of the neutrophils at 1 mM
T1 construct: Neutrophils were isolated from 30 ml freshly drawn heparinized whole blood; endogenous in cells; host or cells: neutrophils isolated from freshly drawn heparinized whole blood
T1 sequence (P04839 2-570 limits assumed): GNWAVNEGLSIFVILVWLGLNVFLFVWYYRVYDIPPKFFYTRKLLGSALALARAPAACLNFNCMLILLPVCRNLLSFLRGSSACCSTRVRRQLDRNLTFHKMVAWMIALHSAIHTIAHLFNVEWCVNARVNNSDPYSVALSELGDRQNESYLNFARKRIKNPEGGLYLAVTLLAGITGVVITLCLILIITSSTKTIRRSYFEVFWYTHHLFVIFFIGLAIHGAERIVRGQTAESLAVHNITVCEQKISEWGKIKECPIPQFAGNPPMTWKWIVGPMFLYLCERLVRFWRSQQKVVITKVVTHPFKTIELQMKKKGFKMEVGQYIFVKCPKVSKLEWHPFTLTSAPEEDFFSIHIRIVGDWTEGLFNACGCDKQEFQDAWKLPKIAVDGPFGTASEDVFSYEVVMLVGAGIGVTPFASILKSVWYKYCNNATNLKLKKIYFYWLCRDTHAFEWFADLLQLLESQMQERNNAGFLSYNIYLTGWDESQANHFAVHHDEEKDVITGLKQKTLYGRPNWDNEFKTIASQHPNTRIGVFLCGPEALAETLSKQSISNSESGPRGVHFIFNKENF
T1 sequence (P13498 2-195 partner limits assumed): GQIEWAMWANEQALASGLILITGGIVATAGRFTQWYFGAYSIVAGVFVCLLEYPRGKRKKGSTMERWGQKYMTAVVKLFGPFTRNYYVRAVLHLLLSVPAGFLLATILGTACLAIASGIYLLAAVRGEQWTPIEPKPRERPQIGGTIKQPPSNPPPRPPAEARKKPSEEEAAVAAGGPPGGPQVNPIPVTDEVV
Method: Neutrophils were isolated from 30 ml freshly drawn heparinized whole blood, after dextran sedimentation of erythrocytes for 30 min. The leucocyte rich plasma was layered over an equal volume of Percoll (Sigma) and centrifuged at 400 g for 15 min. […] Neutrophils were washed with PBS (pH 7.1) and centrifuged at 200 g for 10 min. Cells were resuspended in fresh HBS (containing […], 0.4 g KCl, 0.06 g Na2 HPO4×2H2 O, 0.06 g KH2 PO4, 0.1 g MgSO4×7H2 O and 1 g glucose in 1000 ml of distilled water; pH adjusted to 7.4 by 7% NaHCO3) and counted before use.
One ml of cell suspension (final cell count 10^6 cells/ml) and the test compound was placed in cuvettes. Production of reactive oxygen by neutrophils ("oxidative burst") was stimulated by addition of phorbol-myristate-acetate (PMA; final concentration 2 μM). The luminol enhanced chemiluminescence was recorded.

[2] = test system: lipid peroxidation in rat liver microsomes; assay: Inhibition of t-butylhydroperoxide-induced lipid peroxidation in rat liver microsomes (luminol chemiluminescence); format: biochemical, rat (Sprague-Dawley); details: for pIC50: t-BuOOH, rat liver microsomes 1.5 μg protein/ml, pH 10.2, 33° C., about 45 min, read-out: IC50 values for the inhibition of microsomal lipid peroxidation, initiated by t-Butylhydroperoxide; for antioxidant potency in the t-BuOOH test compared with butylated hydroxyanisole: in words, versus butylated hydroxyanisole
Method: (§2) Adult male Sprague-Dawley rats were decapitated, and the liver was excised and chilled in ice-cold 0.25 M sucrose solution. A 20% (w/v) liver homogenate was prepared in the sucrose solution (0° C.) with a homogenizer. Microsomes were prepared from the postmitochondrial (12000×g for 10 min at 4° C.) supernatant fluid by centrifugation (105000×g for 10 min at 4° C.).
(§3) The antioxidant properties of the compounds were estimated by their potency to inhibit t-butylhydroperoxide (t-BuOOH) or ascorbate/ADP-FeCl3 -induced lipid peroxidation in rat liver microsomes in vitro. In the t-BuOOH assay the buffer (50 mM sodium carbonate, pH 10.2, with 0.1 mM EDTA) was pipetted in a volume of 0.8 ml in the luminometer cuvette. 20 μl of diluted rat liver microsomes (final concentration 1.5 μg protein/ml) was added, followed by 6 μl of luminol (0.5 mg/ml) and test compounds. The reaction was initiated by 0.05 ml of 0.9 mM t-BuOOH at 33° C. The chemiluminescence was measured for about 45 min and the area under the curve was calculated. In the ascorbate/ADP-FeCl3 assay microsomes (final concentration 1.2 mg protein/ml) in 20 mM phosphate buffer, including 90 mM KCl, were incubated for 20 min at 37° C. in the presence of ascorbate (0.5 mM final concentration; pH of the buffer 6.0), ADP and FeCl3 (final concentrations 0.85 and 0.05 mM, respectively) and test compounds. Total incubation volume was 0.5 ml. The incubation was stopped by addition of 0.5 ml of 30% trichloroacetic acid plus 0.05 ml 2% butylated hydroxytoluene in ethanol. The extent of lipid peroxidation was estimated by the amount of thiobarbituric acid (TBA) reactive material formed.
(§4) IC50 value means concentration of test compound that inhibits lipid peroxidation by 50%.

[3] = test system: lipid peroxidation in rat liver microsomes; assay: Inhibition of ascorbate/ADP-FeCl3-induced lipid peroxidation in rat liver microsomes (TBA reactive material); format: biochemical, rat (Sprague-Dawley); details: rat liver microsomes 1.2 mg protein/ml, pH 6.0, 20 min at 37° C., read-out: IC50 values for the inhibition of microsomal lipid peroxidation, initiated by Ascorbate/ADP-FeCl3
Method: as §2, §3, §4

[4] = test system: serum lipid peroxides (diene conjugation); assay: In vivo serum lipid peroxides, diene conjugation; design: species or system rat (female Sprague-Dawley); details: rats; daily oral gavage 12 and 48 mg/kg; 2 days to 12 months; FIG. 1
Method: (§1) Test compound was given to six-week old female Sprague-Dawley rats daily by oral gavage at doses of 12 and 48 mg/kg for 12 months. The vehicle, carboxymethyl cellulose (0.5%), was given to control animals. Five rats per dose group were killed after 2 days, 5 weeks, 3, 6 and 12 months of dosing. Further groups were allowed to recover for 13 weeks without treatment after 6 and 12 months' dosing. The serum levels of lipid peroxides were measured by two different methods (diene conjugation and TBA-reactive material). For the measurement of diene conjugation, lipids extracted from serum samples (100 μl) by chloroform/methanol (2:1), dried under nitrogen and redissolved in cyclohexane, were analyzed spectrophotometrically (at 234 nm). For the analysis of TBA-reactive material serum samples (100 μl) were diluted in phosphate buffer and heated together with a TBA solution ([…]) in a boiling water bath for 15 min. The tubes were cooled, and the absorbances measured at 535 nm.

[5] = test system: serum lipid peroxides (TBA-reactive material); assay: In vivo serum lipid peroxides, TBA-reactive material; design: species or system rat (female Sprague-Dawley); details: rats; daily oral gavage 12 and 48 mg/kg; 2 days to 12 months; FIG. 2
Method: as §1

[6] = PMA 2 μM, 10^6 cells/ml, read-out: IC50, inhibition of NADPH oxidase of the neutrophils

pIC50 [2] | pIC50 [3] | inhibition at 1000 µM ([1]; 1 mM, PMA 2 μM, 10^6 cells/ml) | SMILES | further results
5.34 | 3.52 | – | C[C@]12CC[C@@H]3c4ccc(O)cc4CC[C@H]3[C@@H]1CC[C@@H]2O [17β-estradiol] | Inhibition of NADPH oxidase of the neutrophils at 1 mM ([1]; 1 mM, PMA 2 μM, 10^6 cells/ml): no effect
– | – | – | CC/C(=C(/CC)c1ccc(O)cc1)c1ccc(O)cc1 [diethylstilbestrol] | pIC50 [1]: 5.10; inhibition at 1000 µM [1]: > 99%
6.42 | 5.52 | > 99% | CN(C)CCOc1ccc(/C(=C(/CCI)c2ccccc2)c2ccccc2)cc1 [Compound 4, 4-iodo-1,2-diphenyl-1-[4-[2-(N,N-dimethylamino)ethoxy]phenyl]-1-butene] | pIC50 [1, 6]: 5.63; antioxidant potency in the t-BuOOH test compared with butylated hydroxyanisole [2]: even stronger than that of the known synthetic antioxidant butylated hydroxyanisole
5.70 | 4.37 | – | Cc1c(C)c2c(c(C)c1O)CCC(C)(CCCC(C)CCCC(C)CCCC(C)C)O2 (stereo not drawn) [α-tocopherol] | –
4.57 | 4.51 | – | CNCCOc1ccc(/C(=C(/CCCl)c2ccccc2)c2ccc(O)cc2)cc1 [Compound 3, 4-chloro-1-(4-hydroxyphenyl)-1-[4-[2-(N-methylamino)ethoxy]phenyl]-2-phenyl-1-butene] | –
– | – | 59% | Cc1c(C)c2c(c(C)c1O)CCC(C)(C(=O)O)O2 (stereo not shown) [Trolox] | Inhibition of NADPH oxidase of the neutrophils at 1 mM ([1]; 1 mM, PMA 2 μM, 10^6 cells/ml): no effect
6.74 | 5.10 | > 99% | CN(C)CCOc1ccc(/C(=C(/CCCl)c2ccccc2)c2ccc(O)cc2)cc1 [Compound 2, 4-chloro-1-(4-hydroxyphenyl)-1-[4-[2-(N,N-dimethylamino)ethoxy]phenyl]-2-phenyl-1-butene] | pIC50 [1, 6]: 5.67; antioxidant potency in the t-BuOOH test compared with butylated hydroxyanisole [2]: even stronger than that of the known synthetic antioxidant butylated hydroxyanisole

SMILES | pIC50 [2] | pIC50 [3] | inhibition at 1000 µM ([1]; 1 mM, PMA 2 μM, 10^6 cells/ml) | further results
CN(C)CCOc1ccc(/C(=C(\CCCl)c2ccccc2)c2ccccc2)cc1 [Compound 5, 4-chloro-1,2-diphenyl-1-[4-[2-(N,N-dimethylamino)ethoxy]phenyl]-1-butene] | 3.39 | 4.44 | – | –
COc1ccc(O)c(C(C)(C)C)c1 [butylated hydroxyanisole] | 5.96 | 6.70 | – | –
CN(C)CCOc1ccc(/C(=C(/CCCl)c2ccccc2)c2ccccc2)cc1 [Compound 1, 4-chloro-1,2-diphenyl-1-[4-[2-(N,N-dimethylamino)ethoxy]phenyl]-1-butene] | 3.35 | 4.74 | – | pIC50 [1]: 5.66; inhibition at 1000 µM [1]: > 99%; effect on serum diene conjugation [4]: effective in decreasing both diene conjugation and TBA-reactive material in rats; effect on serum TBA-reactive material [5]: effective in decreasing both diene conjugation and TBA-reactive material in rats
